Like-named read-outs stand apart in the source and are kept apart here.
Columns and labels:
[1] = target: cortisol synthase (CYP11B1) (Macaca fascicularis, UniProt A0A2K5ULY1); experiment: Inhibition of cortisol synthesis (cynomolgus adrenal mitochondria, cortisol by mass spectrometry); format: biochemical, cynomolgus monkey
Experimental: The aldosterone synthase and cortisol synthase inhibition assays employ cynomolgus adrenal gland mitochondria as the source of aldosterone synthase (CYP11B2) and cortisol synthase (CYP11B1). Mitochondria are prepared from frozen cynomolgus monkey adrenal glands according to Method A described in by J. D. McGarry et al. (Biochem. J., 1983, 214, 21-28), with a final resuspension in the AT buffer described in R. Yamaguchi et al. (Cell Death and Differentiation, 2007, 14, 616-624), frozen as aliquots in liquid nitrogen and stored at −80° C. until use. One unit of CYP11B2 and CYP11B1 activity in these preparations is defined as the amount of enzyme that generates 1 pmol of product in one hour under the conditions described.
(§1) Assays are performed in 96-well format in a final volume of 60 microL/well, containing 100 mM potassium phosphate, pH 7.4, 1% (v/v) DMSO, and additionally, 2 μM of corticosterone and 50 units of CYP11B2 activity. Reactions are started by the addition of NADPH to 1 mM and allowed to proceed for 90 minutes at 37° C. Reactions are terminated by the addition of 60 μL of MeCN containing an internal standard for mass spectrometry. One hundred microliters are then transferred to a glass filter plate and centrifuged at 570×g for 5 minutes and the filtrate is collected. Reaction product aldosterone is quantified by mass spectrometry. To determine the assay blank value (0% activity), NADPH is omitted from some reactions.
Dose dependent inhibition is quantified by the inclusion of compound at various concentrations. Maximum activity (100%) is defined by reactions containing NADPH, but without compound. Activities at each concentration are expressed as a percentage of the maximum activity (y-axis) and plotted against concentration of compound (x-axis) and the concentration corresponding to 50% activity (IC50) determined using the XLFit curve-fitting program using a 4-parameter logistic model.
Assays are performed as for aldosterone synthase except for the use of 150 units of CYP11B1, 11-deoxycortisol as substrate and cortisol measured as product.

[2] = target: aldosterone synthase (CYP11B2) (Macaca fascicularis, UniProt A0A2K5UPL9); experiment: Inhibition of aldosterone synthase (cynomolgus adrenal mitochondria, aldosterone by mass spectrometry); format: biochemical, cynomolgus monkey; settings: 2 μM corticosterone substrate, 50 units CYP11B2, 90 min, 37° C.; read-out: Aldosterone Inhibition IC50
Chain of aldosterone synthase (CYP11B2) (A0A2K5UPL9 1-503): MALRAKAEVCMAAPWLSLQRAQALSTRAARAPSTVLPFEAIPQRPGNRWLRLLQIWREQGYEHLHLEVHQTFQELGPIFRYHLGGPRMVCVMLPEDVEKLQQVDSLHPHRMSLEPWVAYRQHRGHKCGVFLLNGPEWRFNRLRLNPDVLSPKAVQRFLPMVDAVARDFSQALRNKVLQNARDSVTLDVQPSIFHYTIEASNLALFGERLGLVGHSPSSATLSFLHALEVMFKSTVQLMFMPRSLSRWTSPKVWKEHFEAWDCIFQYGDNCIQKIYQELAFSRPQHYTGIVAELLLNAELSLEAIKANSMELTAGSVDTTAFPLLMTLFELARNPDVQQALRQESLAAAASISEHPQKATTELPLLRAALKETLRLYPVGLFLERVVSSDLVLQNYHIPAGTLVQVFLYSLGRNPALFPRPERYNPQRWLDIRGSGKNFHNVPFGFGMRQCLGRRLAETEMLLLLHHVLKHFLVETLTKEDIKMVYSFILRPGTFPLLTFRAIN
Experimental: The aldosterone synthase and cortisol synthase inhibition assays employ cynomolgus adrenal gland mitochondria as the source of aldosterone synthase (CYP11B2) and cortisol synthase (CYP11B1). […] One unit of CYP11B2 and CYP11B1 activity in these preparations is defined as the amount of enzyme that generates 1 pmol of product in one hour under the conditions described.
The compounds of the invention may be evaluated for aldosterone synthase inhibition by the following assay:
as §1
Dose dependent inhibition is quantified by the inclusion of compound at various concentrations. Maximum activity (100%) is defined by reactions containing NADPH, but without compound.

[3] = 11-deoxycortisol substrate, 150 units CYP11B1; read-out: Cortisol Inhibition IC50
[4] = read-out: Cortisol Inhibition IC50; 11-deoxycortisol substrate, 150 units CYP11B1

Row | Structure (SMILES) | IC50 [1, 3] | IC50 [2] | IC50 [1, 4]
1 | CC1(C)CC(=O)c2c(ncn2C2Cc3ccccc3C2)C1 [C-ADG] | 61000 nM | 47 nM | –
2 | CC1(C)CC(=O)c2c(ncn2Cc2ccc(C(=O)N3CC[C@@H](O)C3)cc2)C1 [C-ADT, 3-[4-((R)-3-Hydroxy-pyrrolidine-1-carbonyl)-benzyl]-6,6-dimethyl-3,5,6,7-tetrahydro-benzoimidazol-4-one] | 29000 nM | 290 nM | –
3 | N#Cc1ccc(-n2cnc3c2C(=O)CC(CO)C3)cc1Cl (centres unmarked) [C-AED, 2-Chloro-4-(5-hydroxymethyl-7-oxo-4,5,6,7-tetrahydro-benzoimidazol-1-yl)-benzonitrile] | – | 18 nM | 8600 nM
4 | CC1(C)CC(=O)c2c(ncn2C2CCCCC2)C1 [C-ACK, 3-Cyclohexyl-6,6-dimethyl-3,5,6,7etrahydro-benzoimidazol-4-one] | 6100 nM | 260 nM | –
5 | CC1(C)CC(=O)c2c(ncn2C2CCCc3ccccc32)C1 (centres unmarked) [C-ACS, 6,6-Dimethyl-3-(1,2,3,4-tetrahydronaphthalen-1-yl)-3,5,6,7-tetrahydro-benzoimidazol-4-one] | – | 93 nM | 26000 nM
6 | CC(C)Oc1ccc(-n2cnc3c2C(=O)CC(C)(C)C3)cc1 [C-ABQ, 3-(4-Isoporopoxy-phenyl)-6,6-dimethyl-3,5,6,7-tetrahydro-benzoimidazol-4-one] | > 100000 nM | 280 nM | –
7 | N#Cc1ccc(-n2cnc3c2C(=O)CC2(CCOCC2)C3)cc1Cl [C-AAQ, 3-(3-Chloro-4-cyano-phenyl)-6,6-3-o-tetrahydropyran-3,5,6,7-tetrahydro-benzoimidazol-4-one] | – | 44 nM | 2900 nM
8 | CC(=O)Nc1ccc(Cn2cnc3c2C(=O)CC(C)(C)C3)cc1 [C-ADE, N-[4-(5,5-Dimethyl-7-oxo-4,5,6,7-tetrahydro-benzoimidazol-1-ylmethyl)-phenyl]-acetamide] | 1900 nM | 58 nM | –
9 | CC1(C)CC(=O)c2c(ncn2C2CCc3cc(Br)ccc3C2)C1 (centres unmarked) [C-ACM, 3-(6-Bromo-1,2,3,4-tetrahydro-naphthalen-2-yl)-6,6-dimethyl-3,5,6,7-tetrahydro-benzoimidazol-4-on] | > 30000 nM | 53 nM | –
10 | CC1(C)CC(=O)c2c(ncn2-c2cccc(C#N)c2)C1 [C-ABS, 3-(5,5-Dimethyl-7-oxo-4,5,6,7-tetrahydro-benzoimidazol-1-yl)-benzonitrile] | 10000 nM | 250 nM | –
11 | N#C[C@H]1CC[C@H](n2cnc3c2C(=O)CCC3)CC1 [C-ACJ, trans-4-(7-Oxo-5,6-dihydro-4H-benzimidazol-1-yl)cyclohexanecarbonitrile] | 13000 nM | 30 nM | –
12 | CCOC(=O)C1CC(=O)c2c(ncn2-c2ccc(C#N)c(Cl)c2)C1 (centres unmarked) [C-AAY, 1-(3-Chloro-4-cyano-phenyl)-7-oxo-4,5,6,7-tetrahydro-1H-benzoimidazole-5-carboxylic acid ethyl ester] | – | 7.3 nM | 5100 nM
13 | CC1(C)CC(=O)c2c(ncn2[C@H]2CC[C@@H](C#N)CC2)C1 [C-ADL, 4-(5,5-Dimethyl-7-oxo-4,5,6,7-tetrahydro-benzoimidazol-1-yl)-cyclohexanecarbonitrile] | 7900 nM | 22 nM | –
14 | CN(C)C(=O)[C@H]1CC(=O)c2c(ncn2-c2ccc(C#N)c(Cl)c2)C1 [C-AEE, (R)-1-(3-Chloro-4-cyano-phenyl)-7-oxo-4,5,6,7-tetrahydro-1H-benzoimidazole-5-carboxylic acid dimethylamide] | – | 190 nM | > 30000 nM
15 | Cc1ccc(-n2cnc3c2C(=O)CC(C)(C)C3)cc1C#N [C-ABY, 5-(5,5-Dimethyl-7-oxo-4,5,6,7-tetrahydro-benzoimidazol-1-yl)-2-methyl-benzonitrile] | 7300 nM | 130 nM | –
16 | CC1(C)CC(=O)c2c(ncn2C2CCC3CCCCC3C2)C1 (centres unmarked) [C-ACO, 3-(Decahydro-naphthalen-2-yl)-6,6-dimethyl-3,5,6,7-tetrahydro-benzoimdazol-4-one] | 14000 nM | 420 nM | –
